Experimental data: patent US9029332B2, “Cross-linked peptides and proteins, methods of making same, and uses thereof” (The Research Foundation for The State University of New York, priority 2010, dated 2015)
Square brackets hold non-standard residues; d marks the D form. Peptide text beside a SMILES is read from it.

How the values were obtained:
GST-Bcl-xL = GST-Bcl-xL (Homo sapiens, UniProt Q07817); experiment: FP binding affinity of fluorescein-labeled peptides, Bcl-xL; settings: FP assay, fluorescein-labeled peptide; read-out: GST-Bcl-xL Kd
GST-Bcl-xL, sequence (Q07817 whole entry): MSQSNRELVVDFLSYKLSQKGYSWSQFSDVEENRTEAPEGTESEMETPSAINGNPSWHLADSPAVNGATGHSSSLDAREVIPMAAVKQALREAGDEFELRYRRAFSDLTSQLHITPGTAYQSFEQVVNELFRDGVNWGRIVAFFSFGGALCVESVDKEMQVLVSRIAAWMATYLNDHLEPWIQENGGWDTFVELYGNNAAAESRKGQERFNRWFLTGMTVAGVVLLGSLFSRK

GST-Mcl-1 [1] = target: T1, GST-Mcl-1 (Homo sapiens, UniProt Q07820); experiment: FP binding affinity of fluorescein-labeled peptides, Mcl-1; settings: FP assay, fluorescein-labeled peptide
T1 sequence (Q07820 whole entry): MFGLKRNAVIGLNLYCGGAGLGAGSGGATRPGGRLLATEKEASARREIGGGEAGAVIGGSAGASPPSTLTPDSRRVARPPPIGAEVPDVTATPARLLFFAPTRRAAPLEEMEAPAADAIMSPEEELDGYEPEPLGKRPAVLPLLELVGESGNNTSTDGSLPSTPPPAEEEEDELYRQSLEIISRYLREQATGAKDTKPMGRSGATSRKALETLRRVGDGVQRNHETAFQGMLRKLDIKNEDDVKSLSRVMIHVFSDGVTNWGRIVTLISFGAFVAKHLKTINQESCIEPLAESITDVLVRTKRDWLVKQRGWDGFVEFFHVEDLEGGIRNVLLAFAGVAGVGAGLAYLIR

chymotrypsin [2] = target: T2, chymotrypsin (Bos taurus, UniProt P00766); experiment: in vitro; settings: cattle (bovine), pH 8
Experimental: (§1) Proteolytic stability of the linear and stapled Noxa peptides against trypsin (Type IX-S, 13,000-20,000 unit/mg, Sigma) and chymotrypsin (Type II, 40 unit/mg, Sigma). To a solution of 400 μL of 0.25 mM peptide in NH4HCO3 buffer, pH 8.0, was added 80 μL trypsin (5 μg/mL) or chymotrypsin (25 μg/mL), and the resulting solution was incubated at 37° C. At the indicated times, 40 μL of the solution was transferred to 40 μL trifluoroacetic acid to quench the reaction. The samples were analyzed by reverse-phase HPLC using benzophenone as an injection control.

trypsin [3] = target: T3, trypsin (Sus scrofa, UniProt P00761); experiment: in vitro; settings: pig (porcine), pH 8
T3 sequence (P00761 9-231): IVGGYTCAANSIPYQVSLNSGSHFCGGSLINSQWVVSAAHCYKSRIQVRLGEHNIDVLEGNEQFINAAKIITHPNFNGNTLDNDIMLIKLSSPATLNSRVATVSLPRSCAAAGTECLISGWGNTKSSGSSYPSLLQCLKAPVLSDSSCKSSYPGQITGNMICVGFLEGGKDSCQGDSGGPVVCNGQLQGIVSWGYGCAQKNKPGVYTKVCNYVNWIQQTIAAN
Experimental: as §1

[4] = target: T4, full-length human MDM2 (GST-MDM2) (Homo sapiens, UniProt Q00987); experiment: ELISA, inhibition of p53-MDM2 interaction; assay type: binding; settings: relative to comparator linear peptide
T4 construct: GST-MDM2 and GST-MDMX containing full-length human MDM2 and MDMX; made in house; host or cells: Escherichia coli
T4 sequence (Q00987 whole entry): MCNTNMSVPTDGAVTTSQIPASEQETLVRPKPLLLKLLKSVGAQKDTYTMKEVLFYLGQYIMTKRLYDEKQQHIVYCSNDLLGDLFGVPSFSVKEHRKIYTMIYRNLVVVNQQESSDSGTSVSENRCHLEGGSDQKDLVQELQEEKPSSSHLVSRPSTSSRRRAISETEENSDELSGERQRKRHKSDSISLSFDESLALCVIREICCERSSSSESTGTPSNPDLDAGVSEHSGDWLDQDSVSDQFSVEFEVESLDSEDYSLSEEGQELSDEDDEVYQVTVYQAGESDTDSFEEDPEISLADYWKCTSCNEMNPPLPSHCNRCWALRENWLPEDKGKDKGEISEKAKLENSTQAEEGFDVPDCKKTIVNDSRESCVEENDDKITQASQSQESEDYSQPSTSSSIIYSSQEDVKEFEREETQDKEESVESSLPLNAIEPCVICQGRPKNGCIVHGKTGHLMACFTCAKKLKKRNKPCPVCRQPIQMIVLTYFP
Description: FIG. 10. ELISA data of the cross-linked PDI analogs. The experiments were repeated three times and the resulting data were plotted with GraphPad Prism 5.0 to derive the average IC50 values along with standard deviations.
ELISA Assay. GST-MDM2 and GST-MDMX containing full-length human MDM2 and MDMX and His6-tagged human p53 were expressed in Escherichia coli and purified by glutathione agarose and Ni^2+-nitrilotriacetic acid beads, respectively, under non-denaturing conditions. Microtiter plates were coated with 2.5 μg/ml His6-p53 in PBS buffer for 16 hours. After washing with PBS containing 0.1% Tween-20 (PBST), the plates were blocked with PBST containing 5% nonfat dry milk (PBSTM) for 30 minutes. Peptides were dissolved in DMSO. GST-MDM2 and MDMX (5 μg/ml) were mixed with peptides in PBSMT containing 10% glycerol and 10 mM dithiolthreitol prior to their additions to the wells at the specified concentrations. The incubation was allowed to proceed for 1 hour at room temperature before the plates were washed with PBST. […] The plates were developed by incubation with TMB peroxidase substrate (KPL, Gaithersburg, Md.) and measured by absorbance at 450 nm. The data was analyzed with the Origin 6.0 software. […]

GST-Mcl-1 [5] = target: T1, GST-Mcl-1; experiment: Competitive fluorescence polarization assay; assay type: binding; settings: for IC50: Noxa peptides, three repeats ± SD, read-out: FP, IC50
Experimental: Competitive Florescence Polarization Assay. The binding affinity of the Noxa peptides toward GST-Mcl-1 was determined in a competitive fluorescence polarization assay with the fluorescein-labeled Bak or Bim. Briefly, fluorescein-labeled Bak was incubated with GST-Mcl-1 in a binding buffer (PBS, 0.005% Tween-20, pH7.4) at room temperature in a 96-well microtiter plate. […] The reading was repeated at various time points to ensure that the competition has reached equilibrium.

HeLa cells = experiment: Cellular uptake of fluorescein-labeled Noxa peptides by FACS and fluorescence microscopy; assay type: cell-based; settings: 10 μM fluorescein-labeled peptide, 2 hours
Experimental: FIG. 13. […] (a) Flow cytometry analysis of cell permeability of the FITC-labeled linear or stapled peptide. HeLa cells were treated with 10 μM of fluorescein-labeled peptides in serum-free DMEM medium for 2 hours followed by fixation with formaldehyde. (b) Fluorescent micrographs of HeLa cells treated with 10 μM of fluorescein-labeled (Fl) linear or cross-linked NoxaBH3 peptide. Scale bar=50 μm.
To investigate cellular uptake of the cross-linked peptides, the N-terminal fluorescein-labeled cross-linked NoxaBH3 peptides (5a, 6a, 7a, 8a) and linear peptide Fl-Noxa-(75-93)-C75A were prepared and their uptakes into HeLa cells were examined by both FACS and fluorescence microscopy. […] To examine whether the cross-linked peptides induce apoptosis, Mcl-1-overexpressing Raji cells and K562 cells co-transfected with Mcl-1/BimEL were treated with the cross-linked peptides and the cell viabilities were measured by CellTiter-Glo reagent. […] For the remaining peptides, the following SEQ ID NOs apply: peptide 9a and 10A are SEQ ID NO:17; 11a and 12 a are SEQ ID NO:18; 5c, 5d, 5e, Fluo-5a, Fluo-6a, and Fluo-6b are SEQ ID NO:16; Fluo-NoxaB^75-94-C75A is SEQ ID NO:15; and Fluo-71 is SEQ ID NO:17.

[6] = Circular dichroism, percent helicity; assay type: physicochemical; settings: compared to the linear NoxaBH3 peptide, 50 μM in 20% ACN/H2O
Experimental: FIG. 12. […] The peptides were dissolved in 20% ACN/H2O for a final concentration of 50 μM.
Circular Dichroism Study. […] The spectra were recorded in the wavelength range of 190-250 nm and averaged over 3 scans with a resolution of 0.5 nm, a bandwidth of 1.0 nm and a response time of 4 s. The sensitivity and the speed of the spectrometer were set to 100 mdeg and 50 nm/min, respectively. All peptides were dissolved in 20% acetonitrile/H2O to reach final concentration of 50 μM.

Mcl-1 [7] = target: Mcl-1 (Homo sapiens, UniProt Q07820); experiment: ELISA of cross-linked Noxa peptides; assay type: binding
Mcl-1 (Homo sapiens, UniProt Q07820), sequence (Q07820 whole entry, species assumed): as the sequence (Q07820 whole entry) above

trypsin [8] = target: T3, trypsin; experiment: Trypsin-mediated proteolytic stability assay
Experimental: as §1

Water solubility = assay type: physicochemical
chymotrypsin [9] = target: T2, chymotrypsin; experiment: Chymotrypsin proteolytic stability assay
Experimental: as §1

Bcl-xL = Bcl-xL (Homo sapiens, UniProt Q07817); settings: background literature; read-out: IC50 against Bcl-xL; cited from earlier work
Bcl-xL, sequence (Q07817 whole entry, species assumed): as the sequence (Q07817 whole entry) above

Mcl-1 [10] = target: Mcl-1 (Mus musculus, UniProt P97287); settings: background literature; read-out: IC50 against Mcl-1; cited from earlier work
Mcl-1 (Mus musculus, UniProt P97287), sequence (P97287 152-308 limits assumed): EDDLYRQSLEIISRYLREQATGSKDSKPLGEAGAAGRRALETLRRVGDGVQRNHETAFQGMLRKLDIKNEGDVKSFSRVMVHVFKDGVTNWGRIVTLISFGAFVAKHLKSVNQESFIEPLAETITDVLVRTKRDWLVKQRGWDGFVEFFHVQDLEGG

Bcl-w = target: T5, Bcl-w (Homo sapiens, UniProt Q92843); settings: background literature; read-out: IC50 against Bcl-w; cited from earlier work
T5 sequence (Q92843 1-193): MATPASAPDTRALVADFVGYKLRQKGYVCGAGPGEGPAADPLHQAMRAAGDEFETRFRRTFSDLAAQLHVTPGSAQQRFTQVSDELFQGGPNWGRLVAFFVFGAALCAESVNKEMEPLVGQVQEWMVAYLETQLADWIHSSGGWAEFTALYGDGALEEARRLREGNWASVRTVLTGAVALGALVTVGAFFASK

Bfl-1/A1 = settings: background literature; read-out: IC50 against Bfl-1/A1; cited from earlier work
Bcl-2 = Bcl-2 (Homo sapiens, UniProt P10415); settings: background literature; read-out: IC50 against Bcl-2; cited from earlier work
Bcl-2, sequence (P10415 whole entry, species assumed): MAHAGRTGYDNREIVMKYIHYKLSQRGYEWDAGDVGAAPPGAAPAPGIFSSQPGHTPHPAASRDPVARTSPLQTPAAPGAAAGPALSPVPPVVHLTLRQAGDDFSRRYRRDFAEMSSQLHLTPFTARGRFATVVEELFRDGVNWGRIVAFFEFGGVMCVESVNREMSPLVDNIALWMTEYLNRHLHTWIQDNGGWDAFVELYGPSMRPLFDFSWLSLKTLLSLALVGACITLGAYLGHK

CC[C@H](C)[C@@H]1NC(=O)[C@H](CCCNC(=N)N)NC(=O)[C@H](CCCNC(=N)N)NC(=O)[C@H](CC(C)C)NC(=O)[C@@H](NC(=O)[C@H](C)NC(=O)[C@H](C)NC(=O)CCCCCNC(=S)Nc2ccc3c(c2)C(=O)OC32c3ccc(O)cc3Oc3cc(O)ccc32)CSCc2ccc(cc2)-c2ccc(cc2)CSC[C@@H](C(=O)N[C@H](C(=O)N[C@@H](CC(N)=O)C(=O)N[C@@H](CC(C)C)C(=O)N[C@@H](CCCNC(=N)N)C(=O)N[C@@H](CCC(N)=O)C(=O)N[C@@H](CCCCN)C(=O)N[C@@H](CC(C)C)C(=O)N[C@@H](CC(C)C)C(=O)N[C@@H](CC(N)=O)C(N)=O)C(C)C)NC(=O)[C@H](CC(=O)O)NC(=O)CNC1=O [Fl-5a]
Kd (GST-Bcl-xL): > 2 µM | Kd (GST-Mcl-1 [1]): 0.0008 ± 0.0001 µM

CC[C@H](C)[C@@H]1NC(=O)[C@H](CCCNC(=N)N)NC(=O)[C@H](CCCNC(=N)N)NC(=O)[C@H](CC(C)C)NC(=O)[C@H](NC(=O)[C@H](C)NC(=O)[C@H](C)NC(=O)CCCCCNC(=S)Nc2ccc3c(c2)C(=O)OC32c3ccc(O)cc3Oc3cc(O)ccc32)CSCc2ccc(cc2)-c2ccc(cc2)CSC[C@@H](C(=O)N[C@H](C(=O)N[C@@H](CC(N)=O)C(=O)N[C@@H](CC(C)C)C(=O)N[C@@H](CCCNC(=N)N)C(=O)N[C@@H](CCC(N)=O)C(=O)N[C@@H](CCCCN)C(=O)N[C@@H](CC(C)C)C(=O)N[C@@H](CC(C)C)C(=O)N[C@@H](CC(N)=O)C(N)=O)C(C)C)NC(=O)[C@H](CC(=O)O)NC(=O)CNC1=O [Fl-6a]
Kd (GST-Bcl-xL): > 2 µM | Kd (GST-Mcl-1 [1]): 0.0007 ± 0.0001 µM

CC[C@H](C)[C@H](NC(=O)[C@H](CCCNC(=N)N)NC(=O)[C@H](CCCNC(=N)N)NC(=O)[C@H](CC(C)C)NC(=O)[C@H](CCC(N)=O)NC(=O)[C@H](C)NC(=O)[C@H](C)NC(C)=O)C(=O)NCC(=O)N[C@@H](CC(=O)O)C(=O)N[C@@H](CCCCN)C(=O)N[C@H](C(=O)N[C@@H](CC(N)=O)C(=O)N[C@@H](CC(C)C)C(=O)N[C@@H](CCCNC(=N)N)C(=O)N[C@@H](CCC(N)=O)C(=O)N[C@@H](CCCCN)C(=O)N[C@@H](CC(C)C)C(=O)N[C@@H](CC(C)C)C(=O)N[C@@H](CC(N)=O)C(N)=O)C(C)C [NoxaB^75-93-C75A]
half-life at 0.208 mM (chymotrypsin [2]): 3.3 min | half-life at 0.208 mM (trypsin [3]): 1.8 min

CC(=O)N[C@@H](CC(C)C)C(=O)N[C@H](C(=O)N[C@@H](Cc1ccccc1)C(=O)N[C@H](CS)C(=O)N[C@@H](Cc1c[nH]cn1)C(=O)N[C@@H](Cc1ccc(O)cc1)C(=O)N[C@@H](Cc1c[nH]c2ccccc12)C(=O)N[C@@H](C)C(=O)N[C@@H](CCC(N)=O)C(=O)N[C@@H](CC(C)C)C(=O)N[C@@H](CS)C(=O)N[C@@H](CO)C(N)=O)[C@@H](C)O [Peptide 3] (Ac-LTF[dC]HYWAQLCS-NH2; C-terminus assumed)
increase in MDM2 activity [4]: more than 3 fold

CC[C@H](C)[C@@H]1NC(=O)[C@H](CCCNC(=N)N)NC(=O)[C@H](CCCNC(=N)N)NC(=O)[C@H](CC(C)C)NC(=O)[C@H](NC(=O)[C@H](C)NC(=O)[C@H](C)NC(C)=O)CSCc2ccc(cc2)-c2ccc(cc2)CSC[C@@H](C(=O)N[C@H](C(=O)N[C@@H](CC(N)=O)C(=O)N[C@@H](CC(C)C)C(=O)N[C@@H](CCCNC(=N)N)C(=O)N[C@@H](CCC(N)=O)C(=O)N[C@@H](CCCCN)C(=O)N[C@@H](CC(C)C)C(=O)N[C@@H](CC(C)C)C(=O)N[C@@H](CC(N)=O)C(N)=O)C(C)C)NC(=O)[C@H](CC(=O)O)NC(=O)CNC1=O [Peptide 6a]
IC50 (GST-Mcl-1 [5]): 0.073 ± 0.018 µM | increase in activity in FPA (GST-Mcl-1 [5]; compared to the parent linear peptide): 37 fold | cellular uptake (HeLa cells): robust uptakes | enhancement in percent helicity [6]: roughly 2 fold | IC50 (Mcl-1 [7]): 0.26 µM

CC[C@H](C)[C@@H]1NC(=O)[C@H](CCCNC(=N)N)NC(=O)[C@H](CCCNC(=N)N)NC(=O)[C@H](CC(C)C)NC(=O)[C@H](NC(=O)[C@H](C)NC(=O)[C@H](C)NC(C)=O)CSCc2ccc(cn2)-c2ccc(nc2)CSC[C@@H](C(=O)N[C@H](C(=O)N[C@@H](CC(N)=O)C(=O)N[C@@H](CC(C)C)C(=O)N[C@@H](CCCNC(=N)N)C(=O)N[C@@H](CCC(N)=O)C(=O)N[C@@H](CCCCN)C(=O)N[C@@H](CC(C)C)C(=O)N[C@@H](CC(C)C)C(=O)N[C@@H](CC(N)=O)C(N)=O)C(C)C)NC(=O)[C@H](CC(=O)O)NC(=O)CNC1=O [Peptide 6b]
IC50 (GST-Mcl-1 [5]): 0.14 ± 0.043 µM | times more stable against trypsin than parent linear peptide (trypsin [8]): > 6 times | half-life at 0.208 mM (trypsin [8]; pig (porcine), trypsin (Type IX-S, Sigma) in NH4HCO3 buffer, pH 8): 11.5 min | water solubility (Water solubility): better water solubility | enhancement in percent helicity [6]: roughly 2 fold | times more stable against chymotrypsin than parent linear peptide (chymotrypsin [9]): > 16 times | half-life at 0.208 mM (chymotrypsin [9]; cattle (bovine), chymotrypsin (Type II, Sigma) in NH4HCO3 buffer, pH 8): 54 min | IC50 (Mcl-1 [7]): 0.14 µM

NoxaBH3-(18-43): human Noxa BH3 peptide, residues 18-43 (PAELEVECATQLRRFGDKLNFRQKLL; UniProt Q13794 18-43, looked up, fragment)
IC50 (Bcl-xL): > 100 µM | IC50 (Mcl-1 [10]): 0.024 µM | IC50 (Bcl-w): > 100 µM | IC50 (Bfl-1/A1): 0.18 µM | IC50 (Bcl-2): > 100 µM
